Test results as given in ChEMBL document CHEMBL1154131, “Bioactive diterpenes and other constituents of Croton steenkampianus” (J Nat Prod, 2008).
Values after ≈ are worked out from the molar mass of the structure shown.

Columns and labels:
[1] = test system: Vero; test: Cytotoxicity against african green monkey Vero cells by MTT assay; type: cell-based; settings: Chlorocebus sabaeus
[2] = test system: Plasmodium falciparum; test: Antiplasmodial activity against chloroquine-susceptible Plasmodium falciparum D10; type: functional, organism-based
[3] = test system: Plasmodium falciparum; test: Antiplasmodial activity against chloroquine-resistant Plasmodium falciparum Dd2; type: functional, organism-based

| SMILES | IC50 [1] | IC50 [2] | IC50 [3] |
| --- | --- | --- | --- |
| CCN(CC)CCCC(C)Nc1ccnc2cc(Cl)ccc12 (stereo not given) [CHLOROQUINE] | 48.5 mg/L (≈ 152 µM) |  |  |
| COc1ccc(-c2oc3cc(O)cc(O)c3c(=O)c2O)cc1O [TAMARIXETIN] | 170 mg/L (≈ 538 µM) | 1.1 mg/L (≈ 3.48 µM) |  |
| O=c1c(O)c(-c2ccc(O)c(O)c2)oc2cc(O)cc(O)c12 [QUERCETIN] | 110 mg/L (≈ 364 µM) |  | 2.4 mg/L (≈ 7.94 µM) |
